Laboratory results from patent US5885968A, “Triantennary cluster glycosides, their preparation and use” (Rijksuniversiteit te Leiden, priority 1992, dated 1999).
Like-named read-outs stand apart in the source and are kept apart here.

Key:
[1] = cited from earlier work
[2] = target: T1, Fuc/Gal receptor on the hepatic Kupffer cell (Rattus norvegicus, UniProt P10716); assay: Inhibition of 125I-Lac-LDL binding to Kupffer cells; conditions: 4° C., 2 h
T1 construct: Kupffer cells in DMEM medium, supplemented with 2% BSA and 2 mM CaCl2; endogenous in cells; host or cells: primary Kupffer cells of liver
T1 sequence (P10716 1-550): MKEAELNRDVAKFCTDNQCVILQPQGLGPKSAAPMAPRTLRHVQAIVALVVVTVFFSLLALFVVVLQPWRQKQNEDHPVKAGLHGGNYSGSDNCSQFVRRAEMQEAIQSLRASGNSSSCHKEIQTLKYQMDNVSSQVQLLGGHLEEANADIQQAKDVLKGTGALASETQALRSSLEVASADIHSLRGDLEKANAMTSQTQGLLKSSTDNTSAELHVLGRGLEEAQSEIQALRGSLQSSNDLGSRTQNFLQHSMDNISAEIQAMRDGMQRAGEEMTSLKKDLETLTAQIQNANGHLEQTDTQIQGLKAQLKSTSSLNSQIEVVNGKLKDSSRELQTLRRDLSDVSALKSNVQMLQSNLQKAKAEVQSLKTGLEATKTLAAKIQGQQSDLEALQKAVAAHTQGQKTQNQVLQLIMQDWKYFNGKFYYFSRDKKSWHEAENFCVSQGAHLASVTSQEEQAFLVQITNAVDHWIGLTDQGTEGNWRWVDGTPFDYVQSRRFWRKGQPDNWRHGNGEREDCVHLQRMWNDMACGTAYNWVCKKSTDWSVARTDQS
Experimental: An idea of the specificity of cluster glycosides for the asialoglycoprotein receptor on the hepatic parenchymal cell can be obtained by comparing the affinity for this receptor with the affinity for the likewise galactose recognizing Fuc/Gal receptor on the hepatic Kupffer cell. […] To that end, Kupffer cells in DMEM medium, supplemented with 2% BSA and 2 mM CaCl2, are incubated at 4° C. for 2 h with 3 μg/ml ^125 I-Lac-LDL in the absence or presence of the compound, in a concentration range of 1 nM to 300 μM. After the incubation the binding of ^125 I-Lac-LDL to the Kupffer cells is determined in a manner identical to that for ^125 I-ASOR binding to liver parenchymal cells.

[3] = target: T2, asialoglycoprotein receptor (Rattus norvegicus, UniProt P02706+P08290); assay: Inhibition of binding of radiolabeled asialoorosomucoid to rat liver parenchymal cells; conditions: for Ki: rat liver parenchymal cells, labeled asialoorosomucoid
T2 construct: parenchymal cells isolated from rat liver; endogenous in cells; host or cells: primary parenchymal cells (hepatocytes) isolated from rat liver
T2 sequence (P02706 1-284): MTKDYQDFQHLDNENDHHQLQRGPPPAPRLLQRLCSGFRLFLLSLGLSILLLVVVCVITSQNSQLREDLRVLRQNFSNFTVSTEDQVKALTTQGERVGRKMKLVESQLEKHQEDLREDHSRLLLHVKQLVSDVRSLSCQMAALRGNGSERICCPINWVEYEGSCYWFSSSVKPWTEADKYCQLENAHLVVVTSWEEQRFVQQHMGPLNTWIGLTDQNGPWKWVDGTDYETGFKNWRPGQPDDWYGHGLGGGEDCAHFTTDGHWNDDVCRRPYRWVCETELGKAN
T2 sequence (P08290 1-301): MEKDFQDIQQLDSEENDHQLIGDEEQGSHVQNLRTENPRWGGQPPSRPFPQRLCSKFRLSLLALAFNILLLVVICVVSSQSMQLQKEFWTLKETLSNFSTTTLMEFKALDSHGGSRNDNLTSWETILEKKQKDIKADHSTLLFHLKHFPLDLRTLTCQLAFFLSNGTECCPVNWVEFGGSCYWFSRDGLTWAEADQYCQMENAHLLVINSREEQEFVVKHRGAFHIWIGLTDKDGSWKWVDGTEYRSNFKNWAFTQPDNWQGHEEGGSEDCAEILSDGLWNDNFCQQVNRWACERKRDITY
Text: The affinity of cluster glycosides can be verified by means of binding studies. In them, it is considered to what extent the compounds are capable of inhibiting the binding of the radioisotopically labeled asioloorosomucoid to parenchymal cells isolated from rat liver according to a previously described procedure (ref 17). The sugar concentration at which inhibition arises is a measure of the affinity.

rats [4] = assay: In vivo fate of lipoprotein (a) charged with glycolipid in rats; design: species or system rat; conditions: rats
Text: The so prepared TG(20 Å)-chol (formula 20): [drawing 24] can also be used to direct apo(a) to the hepatic parenchymal cell. High levels of lp(a) are correlated with the occurence of coronary and vascular diseases. To date, an adequate clinical therapy to alleviate the pathogenesis is not available. To investigate whether TG(20 Å)C can be used to stimulate the hepatic uptake and processing of lp(a) this, isolated lp(a) was charged with TG(20 Å)-chol according to a procedure that is known per se and the in vivo behaviour of the particle was studied. Lp(a) (50 μg) in PBS was incubated at 20° C. for 30 min with 0, 5, 15 and 50 μg TG(20 Å) (-chol). This charge led to a changed behaviour of the apo(a) after intravenous injection into rats. This is illustrated in FIG. 8. […] On account of the high […] of TG(20 Å)-chol, very rapidly an exchange of this compound occurs between lp(a) and other lipoproteins and lipid compartments. This then leads to a stabilization of the lp(a) level in the bloodstream after a few minutes.
^125 I-Lp(a) (50 μg) was mixed with 50 μg of TG(20 Å)C or TG(4 Å)C in 500 μl PBS. After 30 min at room temperature, the mixtures were injected into rats at a dose of 50 μg of apolipoprotein/kg body weight. Ten minutes after injection, parenchymal, endothelial and Kupffer cells were isolated from the liver and counted for radioactivity. Values are expressed as 10-3.% of the injected dose per mg of cellular protein and are means of 3 experiments ± s.e.m.

rats [5] = assay: Serum cholesterol lowering after intravenous injection in rats; assay type: in vivo, rat; conditions: injection into vena penis, 0.056-0.56 mg, FIG. 3
Experimental: This was verified as follows. Male rats (250-300 g) were anesthetized by means of ether, whereafter 500 gl PBS, having dissolved therein 0.56 mg, 0.18 mg, 0.056 mg or 0 mg TG(20 Å)-chol (formula 20) or 0.56 mg tris-glu-chol (formula 21): [drawing 19] was injected into the vena penis. At the times indicated in FIG. 3, blood samples of 300 μl were taken by means of orbital puncture. The blood samples were centrifuged (5 min; 1500 g) and the serum was used for a cholesterol assay by means of the CHOD-PAP kit of Boehringer Mannheim. 24 Hours after injection the rat was bled. The blood was centrifuged whereafter the serum was pipeted. Then the serum was subjected to gradient density ultracentrifugation and the various lipoprotein fractions were isolated: HDL (1.21<d<1.05), LDL (1.050<d<1.019), IDL (1.019<d<1.006) and VLDL (d<1.006). Finally, the total cholesterol concentrations of these lipoprotein fractions were assayed by means of the CHOD-PAP kit.

[6] = read-out: Fuc-Gal receptor pKi (converted)
[7] = read-out: Asialoglycoprotein receptor Ki
[8] = read-out: Asialoglycoprotein receptor pKi (± S.E.) (converted)
[9] = 125I-Lp(a) 50 μg + 50 μg glycolipid, 10 min after injection, mean ± s.e.m., 3 experiments

Row | Compound | Ki ([2]; read-out: Fuc-Gal receptor Ki) [µM] | Ki [2, 6] [µM] | Ki [3, 7] [µM] | Ki [3, 8] [µM] | other results
1 | CC(C)CCC[C@@H](C)[C@H]1CC[C@H]2[C@@H]3CC=C4C[C@@H](OC(=O)CCC(=O)NCC(=O)NC(CO[C@@H]5O[C@H](CO)[C@H](O)[C@H](O)[C@H]5O)(CO[C@@H]5O[C@H](CO)[C@H](O)[C@H](O)[C@H]5O)CO[C@@H]5O[C@H](CO)[C@H](O)[C@H](O)[C@H]5O)CC[C@]4(C)[C@H]3CC[C@]12C [tris-gal-chol] |  |  |  |  | Removal of cholesterol from the bloodstream and liver uptake [1]: capable of irreversibly removing cholesterol from the bloodstream and inducing cholesterol uptake by the liver; Potency as hypolipidemic agent ([1]; high doses necessary): low; Route of LDL removal after injection ([1]; in vivo): via the Fuc/Gal receptors on hepatic Kupffer cells
2 | CC(C)CCC[C@@H](C)[C@H]1CC[C@H]2[C@@H]3CC=C4C[C@@H](OC(=O)CCC(=O)NCC(=O)NC(CO[C@@H]5O[C@H](CO)[C@H](O)[C@H](O)[C@H]5O)(CO[C@@H]5O[C@H](CO)[C@H](O)[C@H](O)[C@H]5O)CO[C@@H]5O[C@H](CO)[C@H](O)[C@H](O)[C@H]5O)CC[C@]4(C)[C@H]3CC[C@]12C [TG(4 Å)C, reference compound] |  |  |  |  | Contribution to hepatic uptake of Lp(a), EC (endothelial cells) (rats [4]; [9]): 10.4 ± 3%; Contribution to hepatic uptake of Lp(a), KC (Kupffer cells) (rats [4]; [9]): 80.3 ± 3%; Liver cell type location of charged lp(a) (in words) (rats [4]): mainly located in the Kupffer cell
3 | CC(C)CCC[C@@H](C)[C@H]1CC[C@H]2[C@@H]3CC=C4C[C@@H](OC(=O)CCC(=O)NCC(=O)NC(CO[C@@H]5O[C@H](CO)[C@@H](O)[C@H](O)[C@H]5O)(CO[C@@H]5O[C@H](CO)[C@@H](O)[C@H](O)[C@H]5O)CO[C@@H]5O[C@H](CO)[C@@H](O)[C@H](O)[C@H]5O)CC[C@]4(C)[C@H]3CC[C@]12C [tris-glu-chol, reference compound] |  |  |  |  | Total serum cholesterol level (rats [5]): does not lead to a change in the cholesterol level

Further lines, with some results ahead:

Row | Ki ([2]; read-out: Fuc-Gal receptor Ki) [µM] | Ki [2, 6] [µM] | Ki [3, 7] [µM] | Ki [3, 8] [µM] | Compound | other results
4 | > 100 | > 100 | 11 | 11.2 | COC(=O)CCCCC(=O)NCC(=O)NC(COCOCCOCCO[C@@H]1O[C@H](CO)[C@H](O)[C@H](O)[C@H]1O)(COCOCCOCCO[C@@H]1O[C@H](CO)[C@H](O)[C@H](O)[C@H]1O)COCOCCOCCO[C@@H]1O[C@H](CO)[C@H](O)[C@H](O)[C@H]1O [Compound 15d] | 
5 | > 30 | > 31.6 | 390 | 389 | COC(=O)CCCCC(=O)NCC(=O)NC(CO[C@@H]1O[C@H](CO)[C@H](O)[C@H](O)[C@H]1O)(CO[C@@H]1O[C@H](CO)[C@H](O)[C@H](O)[C@H]1O)CO[C@@H]1O[C@H](CO)[C@H](O)[C@H](O)[C@H]1O [Compound 15a] | 
6 | > 100 | > 100 | 19 | 19.1 | COC(=O)CCCCC(=O)NCC(=O)NC(COCOCCO[C@@H]1O[C@H](CO)[C@H](O)[C@H](O)[C@H]1O)(COCOCCO[C@@H]1O[C@H](CO)[C@H](O)[C@H](O)[C@H]1O)COCOCCO[C@@H]1O[C@H](CO)[C@H](O)[C@H](O)[C@H]1O [Compound 15b] | 
7 | > 100 | > 100 | 0.2 | 0.209 | COC(=O)CCCCC(=O)NCC(=O)NC(COCOCCOCCOCCOCCO[C@@H]1O[C@H](CO)[C@H](O)[C@H](O)[C@H]1O)(COCOCCOCCOCCOCCO[C@@H]1O[C@H](CO)[C@H](O)[C@H](O)[C@H]1O)COCOCCOCCOCCOCCO[C@@H]1O[C@H](CO)[C@H](O)[C@H](O)[C@H]1O [Compound 15e] | 
8 | > 100 | > 100 | 1.2 | 1.23 | COC(=O)CCCCC(=O)NCC(=O)NC(COCOCCCO[C@@H]1O[C@H](CO)[C@H](O)[C@H](O)[C@H]1O)(COCOCCCO[C@@H]1O[C@H](CO)[C@H](O)[C@H](O)[C@H]1O)COCOCCCO[C@@H]1O[C@H](CO)[C@H](O)[C@H](O)[C@H]1O [Compound 15c] | Relative affinity for the ASGPr (in words) ([3]; from Table 2): slightly higher affinity than TG(13 Å)
